# Measurements as given in patent US20170008888A1 (KYORIN PHARMACEUTICAL CO., LTD., priority 2014, published 2017).
# Like-named read-outs stand apart in the source and are kept apart here.
# Tests used:
# Format in all cases: binding
# ERK5 = target: T1, ERK5 (Homo sapiens, UniProt Q13164); test: Probe-based (AX9989 acyl phosphate ATP probe) kinase profiling in Jurkat lysate: ERK5; settings: for IC50: Jurkat lysate; for inhibition at 0.1 µM: screening concentration 0.1 μM
# T1 construct: screened for activity against several kinases in Jurkat cells; endogenous in cells; host or cells: Jurkat cell lysate
# In short: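 Gel-filtered Jurkat lysate (5 mg/ml, 20 mM MnCl2) preincubated 15 min at room temperature with compound, then labelled with 5 μM AX9989 acyl phosphate ATP probe. Probe-labelled ERK5 active-site peptides quantified by LC/MS after trypsin digestion and streptavidin capture; IC50 calculated from percent inhibition at the screening concentration.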
# AurA = target: T2, AurA (Homo sapiens, UniProt O14965); test: Probe-based (AX9989) kinase profiling in Jurkat lysate: AurA; settings: for inhibition at 0.1 µM: screening concentration 0.1 μM
# T2 construct: screened for activity against several kinases in Jurkat cells; endogenous in cells; host or cells: Jurkat cell lysate
# T2 sequence (O14965 1-403): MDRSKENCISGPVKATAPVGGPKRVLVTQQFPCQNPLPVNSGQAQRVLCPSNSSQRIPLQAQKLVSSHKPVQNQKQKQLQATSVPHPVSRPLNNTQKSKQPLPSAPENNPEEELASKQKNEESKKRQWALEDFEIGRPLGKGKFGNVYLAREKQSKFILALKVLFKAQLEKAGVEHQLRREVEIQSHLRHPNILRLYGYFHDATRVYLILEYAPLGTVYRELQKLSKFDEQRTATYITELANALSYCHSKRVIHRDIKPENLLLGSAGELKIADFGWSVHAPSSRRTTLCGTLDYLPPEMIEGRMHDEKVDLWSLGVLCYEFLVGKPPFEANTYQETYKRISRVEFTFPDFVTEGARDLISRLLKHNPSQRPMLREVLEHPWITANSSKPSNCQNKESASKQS
# In short: (§1)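 Gel-filtered Jurkat lysate (HEPES pH 7.5, 20 mM MnCl2, 5 mg/ml) was pre-incubated 15 min with compound at room temperature, then labelled with 5 μM acyl-phosphate ATP probe AX9989. Tryptic probe-labelled active-site peptides were streptavidin-captured and quantified by LC/MS. Percent inhibition reflected the decrease in labelled-peptide intensity versus no compound.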
# AurB or AurC = test: Probe-based (AX9989) kinase profiling in Jurkat lysate: AurB or AurC
# In short: as §1
# JAK1 = target: T3, JAK1 (Homo sapiens, UniProt P23458); test: Probe-based (AX9989) kinase profiling in Jurkat lysate: JAK1; settings: for inhibition at 0.1 µM: screening concentration 0.1 μM
# T3 construct: screened for activity against several kinases in Jurkat cells; endogenous in cells; host or cells: Jurkat cell lysate
# In short: as §1
# AMPKa1 or AMPKa2 = test: Probe-based (AX9989) kinase profiling in Jurkat lysate: AMPKa1 or AMPKa2
# In short: as §1
# TAO2 = target: T4, TAO2 (Homo sapiens, UniProt Q9UL54); test: Probe-based (AX9989) kinase profiling in Jurkat lysate: TAO2; settings: for inhibition at 0.1 µM: screening concentration 0.1 μM
# T4 construct: screened for activity against several kinases in Jurkat cells; endogenous in cells; host or cells: Jurkat cell lysate
# T4 sequence (Q9UL54 1-1235): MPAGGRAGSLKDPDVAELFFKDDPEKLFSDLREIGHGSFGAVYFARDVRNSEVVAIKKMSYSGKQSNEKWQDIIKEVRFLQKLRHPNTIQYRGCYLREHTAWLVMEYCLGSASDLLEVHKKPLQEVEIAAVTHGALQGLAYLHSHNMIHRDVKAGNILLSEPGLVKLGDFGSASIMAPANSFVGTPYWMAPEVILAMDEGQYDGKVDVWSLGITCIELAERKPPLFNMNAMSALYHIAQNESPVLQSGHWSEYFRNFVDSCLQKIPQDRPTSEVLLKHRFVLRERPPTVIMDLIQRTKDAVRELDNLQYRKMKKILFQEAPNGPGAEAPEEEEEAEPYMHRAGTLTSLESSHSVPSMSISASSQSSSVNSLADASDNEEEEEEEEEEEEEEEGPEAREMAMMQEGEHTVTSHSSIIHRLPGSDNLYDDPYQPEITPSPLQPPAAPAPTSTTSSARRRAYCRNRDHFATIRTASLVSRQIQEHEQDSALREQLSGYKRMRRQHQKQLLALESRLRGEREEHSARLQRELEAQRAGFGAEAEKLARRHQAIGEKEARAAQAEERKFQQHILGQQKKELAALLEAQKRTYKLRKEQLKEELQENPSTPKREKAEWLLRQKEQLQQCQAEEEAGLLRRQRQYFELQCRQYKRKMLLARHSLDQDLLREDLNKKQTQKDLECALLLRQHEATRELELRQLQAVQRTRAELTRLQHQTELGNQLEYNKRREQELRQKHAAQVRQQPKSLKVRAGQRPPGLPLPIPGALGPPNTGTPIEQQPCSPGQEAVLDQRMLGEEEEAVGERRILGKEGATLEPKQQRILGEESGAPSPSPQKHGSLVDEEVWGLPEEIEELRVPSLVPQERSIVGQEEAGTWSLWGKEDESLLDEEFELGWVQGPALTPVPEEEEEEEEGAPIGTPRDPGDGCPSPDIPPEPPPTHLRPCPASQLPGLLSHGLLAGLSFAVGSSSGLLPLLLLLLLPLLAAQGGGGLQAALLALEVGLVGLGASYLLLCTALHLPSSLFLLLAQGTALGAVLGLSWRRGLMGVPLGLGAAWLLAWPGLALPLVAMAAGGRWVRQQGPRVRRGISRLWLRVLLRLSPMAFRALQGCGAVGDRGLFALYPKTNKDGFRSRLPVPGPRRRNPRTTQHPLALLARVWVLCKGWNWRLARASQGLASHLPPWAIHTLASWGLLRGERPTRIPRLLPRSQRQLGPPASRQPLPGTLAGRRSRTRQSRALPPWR
# In short: as §1
# ACK = target: T5, ACK (Homo sapiens, UniProt Q07912); test: Probe-based (AX9989) kinase profiling in Jurkat lysate: ACK; settings: for inhibition at 0.1 µM: screening concentration 0.1 μM
# T5 construct: screened for activity against several kinases in Jurkat cells; endogenous in cells; host or cells: Jurkat cell lysate
# In short: as §1
# ABL or ARG = test: Probe-based (AX9989) kinase profiling in Jurkat lysate: ABL or ARG
# In short: as §1
# [1] = target: T6, BRD4 bromodomain domain I [BRD4(1)] (Homo sapiens, UniProt O60885); test: BRD4 bromodomain domain 1 inhibition assay (TR-FRET); settings: screening concentration 10 μM
# T6 construct: BRD4 bromodomain domain I [BRD4(1)]; purchased Cayman Chemicals
# Description: The inhibitory activity of test compounds on the bromodomain, BRD4 bromodomain domain I [BRD4(1)], were determined via TR-FRET after a slight modification of the manufacturer's protocol (Cayman Chemicals, Ann Arbor, Mich.). Briefly, compounds were diluted to a 20× ([…]) concentration in DMSO. 100 nL of 20× compounds were then dry stamped into triplicate wells of black, low volume 384 well plates (Aurora Biotechnologies, Carlsbad, Calif.) using the Mosquito liquid handler (TPP Labtech, Melbourn, UK). 20× compounds were then diluted to a 4× (40 μM) concentration in Assay Buffer to result in 2% DMSO content. […] JQ1 at 10 μM or 0.5% DMSO final concentrations were used as the positive and negative controls, respectively, to set the assay window. The fluorescence was read in a time-resolved format on the Biotec Synergy 2 plate reader by exciting the signal at 340 nm and reading emissions at 620 and 670, using a 100 μs delay and 200 μs read window. […] Briefly, TR-FRET ratio values were normalized to the average TR-FRET ratio value given by 10 μM JQ1. […]
# [2] = calculated from percent inhibition of AX9989 labeling and the screening concentration
# [3] = read-out: Kinase inhibition % at indicated screening concentration: ERK5
# [4] = read-out: Kinase inhibition % at indicated screening concentration: AurA
# [5] = read-out: Kinase inhibition % at indicated screening concentration: JAK1
# [6] = read-out: Kinase inhibition % at indicated screening concentration: TAO2
# [7] = read-out: Kinase inhibition % at indicated screening concentration: ACK
# [8] = screening concentration 1.0 μM, read-out: Kinase inhibition % at indicated screening concentration: ERK5
# T3 sequence (P23458 whole entry): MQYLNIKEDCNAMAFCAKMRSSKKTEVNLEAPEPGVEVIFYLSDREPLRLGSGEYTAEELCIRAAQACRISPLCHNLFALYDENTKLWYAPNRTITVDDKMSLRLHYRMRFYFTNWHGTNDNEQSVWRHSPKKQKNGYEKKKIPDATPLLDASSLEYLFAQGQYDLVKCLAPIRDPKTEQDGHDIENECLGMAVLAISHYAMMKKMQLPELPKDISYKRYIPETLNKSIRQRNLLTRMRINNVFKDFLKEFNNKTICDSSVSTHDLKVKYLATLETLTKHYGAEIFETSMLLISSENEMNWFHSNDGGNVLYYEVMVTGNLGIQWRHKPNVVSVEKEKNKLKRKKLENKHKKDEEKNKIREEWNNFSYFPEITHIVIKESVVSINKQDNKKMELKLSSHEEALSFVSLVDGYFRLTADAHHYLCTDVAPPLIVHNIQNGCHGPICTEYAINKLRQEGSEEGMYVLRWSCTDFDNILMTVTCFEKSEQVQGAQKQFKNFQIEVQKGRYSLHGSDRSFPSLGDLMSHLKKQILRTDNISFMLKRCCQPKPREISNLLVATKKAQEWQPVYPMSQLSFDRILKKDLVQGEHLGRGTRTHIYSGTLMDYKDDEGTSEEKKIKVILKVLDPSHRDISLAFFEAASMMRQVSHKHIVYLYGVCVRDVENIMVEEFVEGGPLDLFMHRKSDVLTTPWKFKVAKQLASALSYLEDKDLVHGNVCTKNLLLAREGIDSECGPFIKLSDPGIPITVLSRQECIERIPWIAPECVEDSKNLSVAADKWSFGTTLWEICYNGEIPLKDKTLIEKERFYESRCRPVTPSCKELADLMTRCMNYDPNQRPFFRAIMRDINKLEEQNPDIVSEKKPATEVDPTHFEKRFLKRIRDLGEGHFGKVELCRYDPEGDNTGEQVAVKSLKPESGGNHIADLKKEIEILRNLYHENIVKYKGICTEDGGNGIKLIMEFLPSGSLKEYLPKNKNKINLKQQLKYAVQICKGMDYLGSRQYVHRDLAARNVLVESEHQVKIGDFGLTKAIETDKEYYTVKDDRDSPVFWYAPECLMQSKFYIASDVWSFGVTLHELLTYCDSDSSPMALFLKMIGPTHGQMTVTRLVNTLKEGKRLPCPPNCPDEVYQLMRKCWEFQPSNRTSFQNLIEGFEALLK
# T1 sequence (Q13164 whole entry): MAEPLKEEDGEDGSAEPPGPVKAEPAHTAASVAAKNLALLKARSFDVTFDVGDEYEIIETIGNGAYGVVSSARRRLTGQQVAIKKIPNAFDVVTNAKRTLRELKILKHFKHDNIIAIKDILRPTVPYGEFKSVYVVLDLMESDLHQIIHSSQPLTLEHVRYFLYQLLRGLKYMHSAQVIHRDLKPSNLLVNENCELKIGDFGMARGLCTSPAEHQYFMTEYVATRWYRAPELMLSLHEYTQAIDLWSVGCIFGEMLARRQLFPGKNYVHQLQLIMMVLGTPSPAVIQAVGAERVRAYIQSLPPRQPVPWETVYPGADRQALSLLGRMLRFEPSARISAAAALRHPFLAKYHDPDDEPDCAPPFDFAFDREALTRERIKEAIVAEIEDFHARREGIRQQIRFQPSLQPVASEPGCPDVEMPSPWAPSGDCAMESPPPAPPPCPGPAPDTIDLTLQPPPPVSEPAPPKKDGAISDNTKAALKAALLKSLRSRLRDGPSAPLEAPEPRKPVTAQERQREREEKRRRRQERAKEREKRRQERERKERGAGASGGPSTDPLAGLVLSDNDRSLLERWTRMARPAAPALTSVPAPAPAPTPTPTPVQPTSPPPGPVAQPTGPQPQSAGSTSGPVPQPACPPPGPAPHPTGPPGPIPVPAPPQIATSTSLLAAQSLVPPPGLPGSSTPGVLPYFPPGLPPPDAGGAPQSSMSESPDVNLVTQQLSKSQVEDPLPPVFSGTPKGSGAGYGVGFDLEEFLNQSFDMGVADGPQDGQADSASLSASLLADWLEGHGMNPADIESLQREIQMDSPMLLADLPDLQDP
# T5 sequence (Q07912 whole entry): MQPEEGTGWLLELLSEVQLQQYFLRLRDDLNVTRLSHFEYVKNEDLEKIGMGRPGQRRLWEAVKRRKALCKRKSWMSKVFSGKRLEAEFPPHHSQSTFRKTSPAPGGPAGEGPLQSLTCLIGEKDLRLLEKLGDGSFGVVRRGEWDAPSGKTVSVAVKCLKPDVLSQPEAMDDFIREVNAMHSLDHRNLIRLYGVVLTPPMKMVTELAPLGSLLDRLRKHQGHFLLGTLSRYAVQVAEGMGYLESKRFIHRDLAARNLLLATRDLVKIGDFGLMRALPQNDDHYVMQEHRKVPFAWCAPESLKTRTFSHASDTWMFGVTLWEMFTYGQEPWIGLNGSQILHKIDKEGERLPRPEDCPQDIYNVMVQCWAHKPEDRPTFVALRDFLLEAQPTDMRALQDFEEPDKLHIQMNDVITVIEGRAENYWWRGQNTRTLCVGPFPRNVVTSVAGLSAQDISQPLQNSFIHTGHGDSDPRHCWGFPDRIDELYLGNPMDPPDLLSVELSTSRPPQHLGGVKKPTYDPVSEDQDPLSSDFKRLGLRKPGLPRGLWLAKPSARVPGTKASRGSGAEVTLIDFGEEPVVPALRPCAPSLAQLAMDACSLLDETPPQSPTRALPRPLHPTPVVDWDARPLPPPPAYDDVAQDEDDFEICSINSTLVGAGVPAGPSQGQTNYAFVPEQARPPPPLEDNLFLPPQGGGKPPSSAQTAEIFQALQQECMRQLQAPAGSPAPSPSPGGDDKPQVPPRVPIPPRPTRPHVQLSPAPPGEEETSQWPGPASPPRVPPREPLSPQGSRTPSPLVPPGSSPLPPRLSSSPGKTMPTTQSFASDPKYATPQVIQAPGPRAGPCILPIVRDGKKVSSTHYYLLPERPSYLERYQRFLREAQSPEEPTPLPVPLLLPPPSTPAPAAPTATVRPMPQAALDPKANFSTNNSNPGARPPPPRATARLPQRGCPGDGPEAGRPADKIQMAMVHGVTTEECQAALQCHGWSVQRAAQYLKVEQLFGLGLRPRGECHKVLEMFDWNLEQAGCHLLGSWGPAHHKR
Compound,IC50 (ERK5; [2]),inhibition at 0.1 µM (ERK5; [3]),inhibition at 0.1 µM (AurA; [4]),Kinase inhibition % at indicated screening concentration: AurB or AurC (AurB or AurC; screening concentration 0.1 μM),inhibition at 0.1 µM (JAK1; [5]),Kinase inhibition % at indicated screening concentration: AMPKa1 or AMPKa2 (AMPKa1 or AMPKa2; screening concentration 0.1 μM),inhibition at 0.1 µM (TAO2; [6]),inhibition at 0.1 µM (ACK; [7]),Kinase inhibition % at indicated screening concentration: ABL or ARG (ABL or ARG; screening concentration 0.1 μM),inhibition at 10 µM [1],inhibition at 1 µM (ERK5; [8]),further results
CCOc1cc(C(=O)N2CCCC(N)C2)ccc1Nc1cc2c(cn1)N(C)C(=O)c1occc1N2C (stereo not shown) [Compound 113],≤ 50 nM,> 90%,≤ 35%,E (E is ≦35%),≤ 35%,E (E is ≦35%),≤ 35%,≤ 35%,E (E is ≦35%),> 85%,,
CN1C(=O)c2ccccc2N(C)c2cc(N[C@H]3CC[C@H](NS(C)(=O)=O)CC3)ncc21 [Compound 99],101 to 500 nM,,,,,,,,,70 to 85%,75 to 90%,"inhibition at 1 µM (AurA; screening concentration 1.0 μM, read-out: Kinase inhibition % at indicated screening concentration: AurA): ≤ 35%; Kinase inhibition % at indicated screening concentration: AurB or AurC (AurB or AurC; screening concentration 1.0 μM): E (E is ≦35%); inhibition at 1 µM (JAK1; screening concentration 1.0 μM, read-out: Kinase inhibition % at indicated screening concentration: JAK1): ≤ 35%; Kinase inhibition % at indicated screening concentration: AMPKa1 or AMPKa2 (AMPKa1 or AMPKa2; screening concentration 1.0 μM): E (E is ≦35%); inhibition at 1 µM (TAO2; screening concentration 1.0 μM, read-out: Kinase inhibition % at indicated screening concentration: TAO2): ≤ 35%; inhibition at 1 µM (ACK; screening concentration 1.0 μM, read-out: Kinase inhibition % at indicated screening concentration: ACK): ≤ 35%; Kinase inhibition % at indicated screening concentration: ABL or ARG (ABL or ARG; screening concentration 1.0 μM): E (E is ≦35%)"

# Now from value to compound, other results behind:
IC50 (ERK5; [2]),inhibition at 0.1 µM (ERK5; [3]),inhibition at 0.1 µM (AurA; [4]),Kinase inhibition % at indicated screening concentration: AurB or AurC (AurB or AurC; screening concentration 0.1 μM),inhibition at 0.1 µM (JAK1; [5]),Kinase inhibition % at indicated screening concentration: AMPKa1 or AMPKa2 (AMPKa1 or AMPKa2; screening concentration 0.1 μM),inhibition at 0.1 µM (TAO2; [6]),inhibition at 0.1 µM (ACK; [7]),Kinase inhibition % at indicated screening concentration: ABL or ARG (ABL or ARG; screening concentration 0.1 μM),inhibition at 10 µM [1],inhibition at 1 µM (ERK5; [8]),Compound,further results
≤ 50 nM,75 to 90%,≤ 35%,E (E is ≦35%),≤ 35%,E (E is ≦35%),≤ 35%,≤ 35%,E (E is ≦35%),> 85%,,CCOc1cc(C(=O)N2CC[C@@H](NC)C2)ccc1Nc1cc2c(cn1)N(C)C(=O)c1ccccc1N2C [Compound 26],
,,,,,,,,,< 70%,,"CCOc1cc(C(=O)N2CCOCC2)ccc1Nc1cc2c(cn1)N(C)C(=O)c1ccccc1O2 [Compound T81, 3-((2-ethoxy-4-(morpholine-4-carbonyl)phenyl)amino)-11-methylbenzo[f]pyrido[4,3-b][1,4]oxazepin-10(11H)-one]","IC50 (ERK5; calculated from percent inhibition and screening concentration, AX9989 probe): 101 to 500 nM; inhibition at 1 µM (ERK5; screening concentration 1 μM, read-out: ERK5 Inhibition % at indicated screening concentration): 75 to 90%; inhibition at 1 µM (AurA; screening concentration 1 μM, read-out: AurA Inhibition % at indicated screening concentration): ≤ 35%; AurB or AurC Inhibition % at indicated screening concentration (AurB or AurC; screening concentration 1 μM): E (E is ≦35%); inhibition at 1 µM (JAK1; screening concentration 1 μM, read-out: JAK1 Inhibition % at indicated screening concentration): ≤ 35%; AMPKa1 or AMPKa2 Inhibition % at indicated screening concentration (AMPKa1 or AMPKa2; screening concentration 1 μM): E (E is ≦35%); inhibition at 1 µM (TAO2; screening concentration 1 μM, read-out: TAO2 Inhibition % at indicated screening concentration): ≤ 35%; inhibition at 1 µM (ACK; screening concentration 1 μM, read-out: ACK Inhibition % at indicated screening concentration): ≤ 35%; ABL or ARG Inhibition % at indicated screening concentration (ABL or ARG; screening concentration 1 μM): E (E is ≦35%)"
101 to 500 nM,,,,,,,,,70 to 85%,75 to 90%,CCOc1cc(C(=O)NCCN(C)C)ccc1Nc1cc2c(cn1)N(C)C(=O)c1ccccc1N2C [Compound 1],
